# Experimental data taken from patent publication US8946231B2, “P2X3, receptor antagonists for treatment of pain” (Merck Sharp & Dohme Corp., priority 2009, dated 2015).
# Target: T1, human P2X3 (Homo sapiens, UniProt P56373)
# T1 construct: expressed in transfected cells
# T1 sequence (P56373 1-397): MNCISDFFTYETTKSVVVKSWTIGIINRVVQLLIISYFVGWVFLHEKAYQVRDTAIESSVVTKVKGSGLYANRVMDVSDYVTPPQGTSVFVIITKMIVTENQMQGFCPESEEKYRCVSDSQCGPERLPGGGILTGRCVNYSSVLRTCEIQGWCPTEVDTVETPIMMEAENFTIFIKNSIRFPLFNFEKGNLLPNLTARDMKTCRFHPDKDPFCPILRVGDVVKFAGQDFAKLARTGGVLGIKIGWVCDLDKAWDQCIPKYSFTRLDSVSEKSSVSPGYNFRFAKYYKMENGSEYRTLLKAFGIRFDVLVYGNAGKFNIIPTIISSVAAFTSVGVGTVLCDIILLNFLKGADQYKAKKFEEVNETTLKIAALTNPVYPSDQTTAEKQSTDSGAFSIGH
# Assay: Intracellular Calcium Measurement to Assess Antagonist Affinity (FLIPR, Fluo-4)
# Format: cell-based
# Conditions: cells expressing human P2X3; agonist α,β-meATP at EC50; antagonist added 10 min before agonist
# Description: Generation of a Human P2X3 and P2X2/3 Stable Cell Line—Human P2X3 receptor cDNA (Accession number NM_002559) was subcloned as a 5′XhoI and 3′HindIII fragment into the expression vector pcDNA5/FRT (Invitrogen). Human P2X2 receptor cDNA (Accession number NM_174873) was subcloned as a 5′EcoRI and 3′NotI fragment into the expression vector pIRESneo2 (BD Biosciences Clontech). The human P2X3 expression construct was transfected using Lipofectamine 2000 (Invitrogen) into Ftp-in—293 cells (Invitrogen) according to the manufacturer's directions. Cells positive for flp-mediated recombination of […] P2X3 were selected using 150 μg/ml hygromycin. The stable human P2X3 cell line was co-transfected with the human P2X2 expression construct using Lipofectamine 2000 as above and co-transfected cells selected using […] hygromycin and 1 mg/ml G418. The stable P2X3 cell line was propagated in DMEM, 10% FBS, 100 μg/ml hygromycin, and 100 units/ml penicillin and 100 μg/ml streptomycin, and maintained at 37° and 95% humidity. The stable P2X213 cell line was propagated as above with the addition of 500 μg/ml G418.
# Intracellular Calcium Measurement to Assess Antagonist Affinity—A fluorescent imaging plate reader (FLIPR; Molecular Devices) was used to monitor intracellular calcium levels using the calcium-chelating dye Fluo-4 (Molecular Probes). The excitation and emission wavelengths used to monitor fluorescence were 488 nm and 530 nm, respectively. Cells expressing either human P2X3 or human P2X2/3 were plated at a density of 20,000 cells/well (20 μl/well) in 384-well black-walled plates approximately 20 hours before beginning the assay. […] During this period fluorescence data is collected at 3 sec intervals followed by 10 sec intervals. […] Following agonist addition fluorescence was measured at 5 sec intervals and analyzed based on the increase in peak relative fluorescence units (RFU) compared to the basal fluorescence. Peak fluorescence was used to determine the inhibitory effect at each concentration of antagonist by the following equation: % Inhibition=100*(1−((RFU(drug)−RFU(control)/(RFU(DMSO only)−RFU(control)))) In vitro Electrophysiological Assay—Cells expressing human P2X3 receptors were grown to a confluence of 65-85% 20 to 32 hours prior to assay. The cells were dissociated with trypsin, centrifuged, and resuspended in bath solution at a cell density of 1×10^6 cells/ml and loaded onto PatchXpress. The bath solution contained 150 mM NaCl, 4 mM KCl, 2 mM CaCl2, 1.2 mM MgCl2, 10 mM HEPES, and 11.1 mM glucose, at pH 7.2. […]
row,IC50,Compound
1,53 nM,"C[C@@H](NC(=O)c1cn(-c2ccc(F)cn2)nc1-c1ccccc1)c1ccc(C(F)(F)F)[n+]([O-])c1 [Example 1.74, 1-(5-Fluoropyridin-2-yl)-N-{(1R)-1-[1-oxido-6-(trifluoromethyl)pyridin-3-yl]ethyl}-3-phenyl-1H-pyrazole-4-carboxamide]"
2,84 nM,Cc1ccc(-c2nc(-c3ccccc3)c(C(=O)N[C@H](C)c3ccc(C(F)(F)F)[n+]([O-])c3)o2)nc1 [Example 2.5]
3,34 nM,CC(C)Cc1nn(-c2ccc(F)cn2)cc1C(=O)N[C@H](C)c1ccc(C(F)(F)F)[n+]([O-])c1 [Example 1.109]
4,125 nM,C[C@@H](NC(=O)c1cn(-c2ccc(F)cn2)nc1-c1cnoc1)c1ccc(C(F)(F)F)[n+]([O-])c1 [Example 1.103]
